Measurements published in patent publication US9212182B2, “Bicyclic sulfonamide compounds as sodium channel inhibitors” (AMGEN INC., priority 2013, dated 2015).

molecular target: Nav 1.7 (Homo sapiens (Human), UniProt Q15858); assay: in-vitro Nav 1.7 PX (IC50); format: cell-based; conditions: not given
Sequence (Q15858 whole entry): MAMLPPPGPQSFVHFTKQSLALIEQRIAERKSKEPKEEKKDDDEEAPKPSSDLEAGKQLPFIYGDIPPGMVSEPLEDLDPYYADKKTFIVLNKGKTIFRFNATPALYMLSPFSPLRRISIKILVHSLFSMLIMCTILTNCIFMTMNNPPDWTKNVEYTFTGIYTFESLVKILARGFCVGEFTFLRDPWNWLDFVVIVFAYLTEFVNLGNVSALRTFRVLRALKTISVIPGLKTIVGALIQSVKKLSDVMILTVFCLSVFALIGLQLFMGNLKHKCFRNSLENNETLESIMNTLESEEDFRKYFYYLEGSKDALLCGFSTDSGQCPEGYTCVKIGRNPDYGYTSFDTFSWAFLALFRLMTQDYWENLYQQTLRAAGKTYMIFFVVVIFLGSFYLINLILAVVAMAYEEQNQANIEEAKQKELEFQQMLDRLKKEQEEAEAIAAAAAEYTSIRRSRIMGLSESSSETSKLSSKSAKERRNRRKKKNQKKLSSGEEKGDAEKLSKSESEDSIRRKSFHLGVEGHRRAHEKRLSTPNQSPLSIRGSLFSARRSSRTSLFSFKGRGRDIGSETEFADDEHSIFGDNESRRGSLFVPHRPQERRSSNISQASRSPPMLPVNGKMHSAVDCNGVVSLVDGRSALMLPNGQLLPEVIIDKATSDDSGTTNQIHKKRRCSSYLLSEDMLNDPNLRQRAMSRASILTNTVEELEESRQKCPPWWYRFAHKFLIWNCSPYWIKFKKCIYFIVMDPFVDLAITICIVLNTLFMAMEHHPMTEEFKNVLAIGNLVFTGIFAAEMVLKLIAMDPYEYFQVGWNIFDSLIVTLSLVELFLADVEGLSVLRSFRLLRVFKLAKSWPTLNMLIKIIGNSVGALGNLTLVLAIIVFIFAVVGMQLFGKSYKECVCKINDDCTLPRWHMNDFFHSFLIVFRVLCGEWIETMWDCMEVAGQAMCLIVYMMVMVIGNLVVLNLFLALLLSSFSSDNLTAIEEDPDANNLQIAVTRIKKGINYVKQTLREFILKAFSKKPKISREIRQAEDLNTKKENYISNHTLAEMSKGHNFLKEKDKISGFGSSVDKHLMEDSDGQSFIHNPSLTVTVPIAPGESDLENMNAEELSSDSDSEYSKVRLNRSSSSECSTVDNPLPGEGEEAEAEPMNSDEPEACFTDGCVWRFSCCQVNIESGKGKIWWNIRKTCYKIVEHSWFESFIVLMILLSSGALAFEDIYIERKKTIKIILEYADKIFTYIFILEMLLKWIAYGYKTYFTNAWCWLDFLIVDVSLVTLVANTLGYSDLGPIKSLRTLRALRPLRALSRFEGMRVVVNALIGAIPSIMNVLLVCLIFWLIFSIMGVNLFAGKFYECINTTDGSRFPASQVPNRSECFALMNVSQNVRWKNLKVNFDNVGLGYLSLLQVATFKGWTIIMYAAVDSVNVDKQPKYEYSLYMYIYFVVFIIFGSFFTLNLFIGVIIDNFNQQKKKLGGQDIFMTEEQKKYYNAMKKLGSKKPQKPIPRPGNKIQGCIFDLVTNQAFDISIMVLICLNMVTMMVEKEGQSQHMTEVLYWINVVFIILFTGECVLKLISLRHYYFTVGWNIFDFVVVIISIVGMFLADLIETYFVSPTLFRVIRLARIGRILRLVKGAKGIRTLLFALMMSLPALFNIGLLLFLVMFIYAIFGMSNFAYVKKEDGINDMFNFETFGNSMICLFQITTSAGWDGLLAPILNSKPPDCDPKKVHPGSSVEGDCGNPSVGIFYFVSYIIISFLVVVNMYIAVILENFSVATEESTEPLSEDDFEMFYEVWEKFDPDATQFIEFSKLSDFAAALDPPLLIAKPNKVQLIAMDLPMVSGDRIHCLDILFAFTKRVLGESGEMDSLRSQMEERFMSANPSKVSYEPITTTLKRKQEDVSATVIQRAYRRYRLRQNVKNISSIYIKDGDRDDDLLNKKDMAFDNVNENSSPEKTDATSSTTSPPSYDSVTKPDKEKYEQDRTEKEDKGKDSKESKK

| IC50 [µM] | Structure (SMILES) |
| --- | --- |
| 7.13 | COc1cc(-c2ccc(F)c(Cl)c2)ccc1-n1c(=O)ccc2cc(S(=O)(=O)Nc3ccon3)ccc21 (atropisomer, axis not shown; (M)) [Example 577, (M)-1-(3′-chloro-4′-fluoro-3-methoxy-4-biphenylyl)-N-3-isoxazolyl-2-oxo-1,2-dihydro-6-quinolinesulfonamide] |
| 0.042 | COc1cc(-c2cnc(OC)c(Cl)c2)c(F)cc1-n1c(=O)ccc2cc(S(=O)(=O)Nc3ncc(F)cn3)ccc21 (atropisomer, axis not shown; (P)) [Example 1156, (P)-1-(4-(5-chloro-6-methoxy-3-pyridinyl)-5-fluoro-2-methoxyphenyl)-N-(5-fluoro-2-pyrimidinyl)-2-oxo-1,2-dihydro-6-quinolinesulfonamide] |
| 6.09 | COc1cc(-c2ccc(Cl)c(C)c2)c(C)cc1-n1c(=O)ccc2cc(S(=O)(=O)Nc3ccon3)ccc21 (atropisomer, axis not shown; (M)) [Example 422, (M)-1-(4′-chloro-5-methoxy-2,3′-dimethyl-4-biphenylyl)-N-3-isoxazolyl-2-oxo-1,2-dihydro-6-quinolinesulfonamide] |
| 0.067 | COc1cc(-c2cc(F)cc(F)c2)c(C)cc1-n1c(=O)cc(C)c2cc(S(=O)(=O)Nc3ccon3)ccc21 (atropisomer, axis not shown; (P)) [Example 570, (P)-1-(3′,5′-difluoro-5-methoxy-2-methyl-4-biphenylyl)-N-3-isoxazolyl-4-methyl-2-oxo-1,2-dihydro-6-quinolinesulfonamide] |

| Structure (SMILES) | IC50 [µM] |
| --- | --- |
| COc1cc(-c2cccc(C(F)(F)F)c2)c(Cl)cc1-n1c(=O)ccc2cc(S(=O)(=O)Nc3ccon3)ccc21 (atropisomer, axis not shown; (M)) [Example 534, (M)-1-(2-chloro-5-methoxy-3′-(trifluoromethyl)-[1,1′-biphenyl]-4-yl)-N-(isoxazol-3-yl)-2-oxo-1,2-dihydroquinoline-6-sulfonamide] | 1.35 |

same assay, conditions: in-vitro Nav 1.7 PX data

| Structure (SMILES) | IC50 [µM] |
| --- | --- |
| COc1nc(C#CC2CCCC2)c(Cl)cc1-n1c(=O)ccc2cc(S(=O)(=O)Nc3cccnn3)ccc21 [Example 646, 1-(5-chloro-6-(cyclopentylethynyl)-2-methoxy-3-pyridinyl)-2-oxo-N-3-pyridazinyl-1,2-dihydro-6-quinolinesulfonamide] | 1.1 |
| COc1ccc(C#N)cc1-c1cc(OC)c(-n2c(=O)ccc3cc(S(=O)(=O)Nc4ccon4)ccc32)cc1F [Example 718, 1-(5′-cyano-2-fluoro-2′,5-dimethoxy-4-biphenylyl)-N-3-isoxazolyl-2-oxo-1,2-dihydro-6-quinolinesulfonamide] | 0.153 |

Results, then the molecule that gave them:

| IC50 [µM] | Structure (SMILES) |
| --- | --- |
| 0.052 | COc1cc(-c2cccc(OC)c2C)ccc1-n1c(=O)ccc2cc(S(=O)(=O)Nc3ccon3)ccc21 [Example 787, 1-(3,3′-dimethoxy-2′-methyl-4-biphenylyl)-N-3-isoxazolyl-2-oxo-1,2-dihydro-6-quinolinesulfonamide] |
| 0.022 | COc1cc(-c2cccc(C(F)(F)F)c2)c(F)cc1-n1c(=O)ccc2cc(S(=O)(=O)Nc3ccon3)c(F)cc21 [Example 980, 7-fluoro-1-(2-fluoro-5-methoxy-3′-(trifluoromethyl)-4-biphenylyl)-N-3-isoxazolyl-2-oxo-1,2-dihydro-6-quinolinesulfonamide] |
| 0.177 | COc1cc(-c2cccc(OC(C)C)c2)ccc1-n1c(=O)ccc2cc(S(=O)(=O)Nc3ncc(F)cn3)ccc21 [Example 827, N-(5-fluoro-2-pyrimidinyl)-1-(3-methoxy-3′-(1-methylethoxy)-4-biphenylyl)-2-oxo-1,2-dihydro-6-quinolinesulfonamide] |
| 0.059 | COc1ccc(-c2ccc(-n3c(=O)ccc4cc(S(=O)(=O)Nc5ccon5)ccc43)c(OC)c2)cc1Cl [Example 1026, 1-(3′-chloro-3,4′-dimethoxy-4-biphenylyl)-N-3-isoxazolyl-2-oxo-1,2-dihydro-6-quinolinesulfonamide] |
| 0.006 | COc1cc(Cl)cc(-c2cc(OC)c(-n3c(=O)ccc4cc(S(=O)(=O)Nc5ncco5)ccc43)cc2F)c1 [Example 926, 1-(3′-chloro-2-fluoro-5,5′-dimethoxy-4-biphenylyl)-N-1,3-oxazol-2-yl-2-oxo-1,2-dihydro-6-quinolinesulfonamide] |
| 0.093 | COc1cc(-c2cccc(C(F)(F)F)c2)ccc1-n1c(=O)ccc2cc(S(=O)(=O)Nc3ccc(F)cn3)ccc21 [Example 918, N-(5-fluoro-2-pyridinyl)-1-(3-methoxy-3′-(trifluoromethyl)-4-biphenylyl)-2-oxo-1,2-dihydro-6-quinolinesulfonamide] |
| 0.071 | COc1ccc(-c2cc(OC)c(-n3c(=O)ccc4cc(S(=O)(=O)Nc5ccon5)ccc43)cc2F)cc1 [Example 954, 1-(2-fluoro-4′,5-dimethoxy-4-biphenylyl)-N-3-isoxazolyl-2-oxo-1,2-dihydro-6-quinolinesulfonamide] |
| 0.087 | COc1cc(-c2cccc(OC)c2Cl)ccc1-n1c(=O)ccc2cc(S(=O)(=O)Nc3ccon3)ccc21 [Example 782, 1-(2′-chloro-3,3′-dimethoxy-4-biphenylyl)-N-3-isoxazolyl-2-oxo-1,2-dihydro-6-quinolinesulfonamide] |
| 0.021 | COc1cc(-c2ccc(C)c(Cl)c2)c(F)cc1-n1c(=O)ccc2cc(S(=O)(=O)Nc3ccon3)c(F)cc21 [Example 979, 1-(3′-chloro-2-fluoro-5-methoxy-4′-methyl-4-biphenylyl)-7-fluoro-N-3-isoxazolyl-2-oxo-1,2-dihydro-6-quinolinesulfonamide] |
| 8.61 | COc1cc(Br)c(F)cc1-n1c(=O)ccc2cc(S(=O)(=O)Nc3cccc(C)n3)ccc21 [Example 989, 1-(4-bromo-5-fluoro-2-methoxyphenyl)-N-(6-methyl-2-pyridinyl)-2-oxo-1,2-dihydro-6-quinolinesulfonamide] |
| 0.035 | COc1ccc(-c2ccc(OC)c(-n3c(=O)ccc4cc(S(=O)(=O)Nc5ccon5)ccc43)c2)cc1Cl [Example 884, 1-(3′-chloro-4,4′-dimethoxy-3-biphenylyl)-N-3-isoxazolyl-2-oxo-1,2-dihydro-6-quinolinesulfonamide] |
| 0.246 | COc1cc(-c2cccc(OC)c2F)c(C)cc1-n1c(=O)ccc2cc(S(=O)(=O)Nc3ncccn3)ccc21 [Example 964, 1-(2′-fluoro-3′,5-dimethoxy-2-methyl-4-biphenylyl)-2-oxo-N-2-pyrimidinyl-1,2-dihydro-6-quinolinesulfonamide] |

same assay, conditions: in-vitro PatchXpress (PX)

| IC50 [µM] | Structure (SMILES) |
| --- | --- |
| 0.008 | COc1cc(-c2cc(F)cc(Cl)c2)ccc1-n1c(=O)ccc2cc(S(=O)(=O)Nc3cccnn3)ccc21 (atropisomer, axis not shown; (P)) [Example 480, (P)-1-(3′-chloro-5′-fluoro-3-methoxy-4-biphenylyl)-2-oxo-N-3-pyridazinyl-1,2-dihydro-6-quinolinesulfonamide] |
| 0.115 | COc1nc(-c2ccc(Cl)c(C)c2)c(Cl)cc1-n1c(=O)ccc2cc(S(=O)(=O)Nc3ccon3)ccc21 [Example 448, 1-(5-chloro-6-(4-chloro-3-methylphenyl)-2-methoxypyridin-3-yl)-N-(isoxazol-3-yl)-2-oxo-1,2-dihydroquinoline-6-sulfonamide] |
| 0.158 | COc1cc(-c2cncc(Cl)c2)c(F)cc1-n1c(=O)ccc2cc(S(=O)(=O)Nc3ccon3)ccc21 [Example 407, 1-(4-(5-chloro-3-pyridinyl)-5-fluoro-2-methoxyphenyl)-N-3-isoxazolyl-2-oxo-1,2-dihydro-6-quinolinesulfonamide] |
